Results reported in patent publication US10676746B2, “Methods for identifying therapeutic targets and treating monitoring cancers” (Fred Hutchinson Cancer Research Center, priority 2013, dated 2020).
“Also recorded” adds a separate entry of the source.

Key:
MSCC cells = assay: Dose-response curves with kinase inhibitors, CellTiterGlo viability, MSCC cells; assay type: cell-based, murine; details: for IC50: Mus musculus
Method: (§1) Kinase inhibition dose response curves were performed with six kinase inhibitors (MK-1775 (a.k.a., […]), TAE684, PI828, PIK93, PP2, PF-562271) against kinase targets (WEE1, ALK, PI3K, PIK4CB, FYN, FAK (ILK surrogate)), respectively. Kinase inhibitors: MK-1775 (S1525), PIK93 (S1489), TAE684 (S1108) were obtained from Selleck Chemicals (Houston, Tex.); PI828 (2814), PP2 (1407) from Tocris Bioscience (Mpls, Minn.), and PF-562271 from Synkinase (San Diego, Calif.). All HNSCC (UMSCC-17A, UM-SCC47A, PCI-15A, PCI-15B, UM-SCC14A, UM-SCC14C) and MSCC (CK1: p53+/+ and CK4: p53−/−) cells were plated at ˜5-10×10^3 cells/100 μl per well, and incubated at 37° C. for ˜24 hours on 96-well assay plates (Corning Inc.). Serial dilutions of the kinase inhibitors and vehicle control (DMSO) were prepared in 1 mL assay blocks at 3× working concentration to generate dose-response curves ranging from 100 μM to 0.03 μM. All serial dilutions were prepared using cell culture media. Approximately 72 hours post-treatment, cells were assessed for metabolic activity via ATP using CellTiterGlo (Promega), following the protocol outlined by the manufacturer utilizing an FLx800, and/or a Synergy H4 Hybrid multi-mode reader (Biotek). All assays were performed in triplicate and normalized to wells with no treatment. Dose-response curves and IC50 values were generated using GraphPad Prism Version 5 (Parameters: nonlinear regression fit; equation=log (inhibitor) vs. response−variable slope (four parameters); single constraint).

[1] = system: HNSCC cells (PCI-15B, UMSCC-17A); assay: Mitotic entry and cell cycle analysis by flow cytometry; assay type: cell-based, human; details: for mitotic entry, phospho-histone H3 (serine 10): 1 μM
Method: (§2) Mitotic entry was assessed as previously described (Aarts, M. et al, Cancer Discov 2012; 2:524-39). Briefly, HNSCC cells (PCI-15B, UMSCC-17A) were treated with 1 μM MK-1775 for 8 and 24 hours, and all cells were harvested, washed, and incubated with rabbit monoclonal antibody to phospho-histone H3 (Serine10) (Cell Signaling Technology, Cat. No. 3465, Danvers, Mass.) for 2 hours at RT, washed, and DNA stained with 20 μg/ml propidium iodide, RNaseA in PBS (Sigma-Aldrich; Cat. Nos. P4170, R6513). Flow cytometric analysis was performed utilizing a BD FACS Canto II, and profiles analyzed with BD Cell Quest software (Becton Dickinson, CA). Caspase-3/7 dependent apoptosis was assessed as per protocol (Promega, Cat. No. G8091) utilizing a SynergyH4 Hybrid Reader (Biotek, VT). AUCs were calculated for all treatments and vehicle (DMSO) for all cell lines utilizing two measurements over a 48-hour period with three concentrations (30 nm, 100 nm, 1 μM) of MK-1775.

HNSCC cells [2] = assay: Dose-response curves with kinase inhibitors, CellTiterGlo viability, HNSCC cells; assay type: cell-based, human; details: for IC50: Homo sapiens; for effect on viability of p53 mutant HNSCC cells: autologous pairs UMSCC-14A, UMSCC-14C, PCI-15A, PCI-15B, result in words
Method: as §1

WEE1 = assay: Immunoblotting of xenograft tumor lysates; assay type: in vivo; details: oral MK-1775 treated mice vs vehicle
From the text: Tumor tissues were minced and homogenized on ice in M-PER Mammalian Protein Extraction Reagent supplemented with Halt Protease and Phosphatase Inhibitor Cocktail (Thermo Fisher Scientific). Extracted proteins were quantified by a BCA protein assay (Thermo Fisher Scientific). […] Anti-WEE1 (Cat. No. 4936), anti-phospho-WEE1 ([…]) (Cat. No. 4910), anti-CDC2 (Cat. No. 9112), and anti-phospho-CDC2 (Tyr15) (Cat. No. 4539) antibodies were purchased from Cell Signaling Technology (Danvers, Mass.). The secondary antibodies used were ZyMaxTM horseradish peroxidase (HRP) conjugated goat-anti-rabbit IgG (Life Technologies). HRP was detected with SuperSignal West Pico Chemiluminescent Substrate kit (Thermo Fisher Scientific).

PCI-15B xenografts = assay: Xenograft tumor model; assay type: in vivo, mice
HNSCC cells [3] = assay: Caspase-3/7 dependent apoptosis assay; assay type: cell-based, human; details: p53 mutant cells
Method: as §2

[4] = design: species or system mice; details: mouse, in vivo
Method: PCI-15B cells were inoculated subcutaneously into the right flanks of 28 eight-week old NOD/SCID IL2 gamma null mice (NSG) provided by the Olson laboratory at the Fred Hutchinson Cancer Research Center. When tumors reached a palpable mass of >50 mm^3, mice were randomly assigned into four treatment groups of seven mice each and all measurements and treatment regimens were carried out using a double-blind protocol. The WEE1 inhibitor MK-1775 (S1525-Selleck Chemicals, Houston, Tex.) was delivered by oral gavage (30 mg/kg) twice per week for 4 weeks in dimethylsulfoxide in 0.5% methylcellulose (M0512, Sigma Aldrich) in a 1:14 suspension. Cisplatin (P4394, cis-diammineplatinum (II) dichloride, Sigma Aldrich) was delivered via intra-peritoneal injection (4.0 mg/kg) once a week for 4 weeks. The volume of the implanted tumor was measured weekly with calipers and tumor volumes calculated using the formula: V=L×W^2/2; in which V, volume (mm^3); L, largest diameter (mm); W, smallest diameter (mm). All animal protocols were approved by the Fred Hutchinson Cancer Research Center Laboratory Animal Care and Use Committee.

[5] = p53−/− (p53 deficient) MSCC cells

Structure (SMILES): NC(=O)Nc1cc(-c2cccc(F)c2)sc1C(=O)N[C@H]1CCCNC1 [AZD7762]
- IC50 (MSCC cells; p53 wild type MSCC cells): 2200 nM
- IC50 (MSCC cells; [5]): 130 nM

Structure (SMILES): C=CCn1c(=O)c2cnc(Nc3ccc(N4CCN(C)CC4)cc3)nc2n1-c1cccc(C(C)(C)O)n1 [MK-1775]
- 4N DNA content ([1]; p53 mutant cells): loss
- subG1 DNA content ([1]; p53 mutant cells): increase
- mitotic entry, phospho-histone H3 (serine 10) ([1]; p53 mutant cells (PCI-15B)): unscheduled mitotic entry
- mitotic entry, phospho-histone H3 (serine 10) ([1]; p53 wild type cells (UMSCC-17A)): not
- IC50 (HNSCC cells [2]; UMSCC14A, p53 mutant UMSCC-14A and UMSCC-14C cells and p53 wild type UMSCC-47 cells (intermediate)): 580 to 1100 nM
- IC50 (HNSCC cells [2]; p53 mutant PCI-15A and PCI-15B HNSCC cells): 140 to 170 nM
- IC50 (HNSCC cells [2]; p53 wild type UMSCC-17A cells): 4500 nM
- effect on viability of p53 mutant HNSCC cells (HNSCC cells [2]): sensitive; also recorded: impairs viability
- IC50 (MSCC cells; p53 wild type MSCC cells): 4500 nM
- IC50 (MSCC cells; [5]): 220 nM
- IC50 lower in p53−/− MSCC cells compared to p53 wild type cells (MSCC cells; p53−/− vs p53 wild type MSCC): 20 fold
- phosphorylation of WEE1 in tumor lysates (WEE1): reduced phosphorylation
- phosphorylation of WEE1 substrate CDC2 in tumor lysates (WEE1): reduced phosphorylation
- inhibition of growth of HNSCC tumors as compared to vehicle (PCI-15B xenografts; 30 mg/kg oral gavage twice weekly, 4-week protocol): 66%
- apoptotic marker caspase 3/7 (HNSCC cells [3]): activation
- tolerability of dosing regime [4]: well-tolerated

Structure (SMILES): CN(c1ncccc1CNc1nc(Nc2ccc3c(c2)CC(=O)N3)ncc1C(F)(F)F)S(C)(=O)=O [PF-562271]
- effect on viability of p53 mutant HNSCC cells (HNSCC cells [2]): sensitive; also recorded: impairs viability

Structure (SMILES): Nc1ccc(-c2cccc3c(=O)cc(N4CCOCC4)oc23)cc1 [PI828]
- effect on viability of p53 mutant HNSCC cells (HNSCC cells [2]): impairs viability

Structure (SMILES): CC(=O)Nc1nc(C)c(-c2ccc(Cl)c(S(=O)(=O)NCCO)c2)s1 [PIK93]
- effect on viability of p53 mutant HNSCC cells (HNSCC cells [2]): sensitive; also recorded: impairs viability

Structure (SMILES): CC(C)(C)n1nc(-c2ccc(Cl)cc2)c2c(N)ncnc21 [PP2]
- effect on viability of p53 mutant HNSCC cells (HNSCC cells [2]): impairs viability

Structure (SMILES): COc1cc(N2CCC(N3CCN(C)CC3)CC2)ccc1Nc1ncc(Cl)c(Nc2ccccc2S(=O)(=O)C(C)C)n1 [TAE684]
- effect on viability of p53 mutant HNSCC cells (HNSCC cells [2]): sensitive; also recorded: impairs viability

Structure (SMILES): N.N.[Cl][Pt][Cl] [cisplatin, cis-diammineplatinum (II) dichloride]
- tumor regression (reduction) (PCI-15B xenografts; cisplatin 4.0 mg/kg i.p. once a week, 4 weeks, MK-1775 given 24 hours after cisplatin): 60%
